One experiment deals with HCT-116 cells. Description: Anti-tumor (cytotoxic) activity assay, SRB method, HCT-116. The format is cell-based. To be noted: Homo sapiens, HCT-116 tumor cells, 72 h at 37° C., read-out: growth inhibition activity on HCT-116 cells, IC50. On the procedure: (§1) All the cytotoxic activity assays of the compounds were conducted on corresponding tumor cell lines. There were 6000˜10000 tumor cells per 100 μL of culture medium, and they were placed in a 96-well plate (Falcon, Calif.). The tumor cells were divided into 3 parts, and treated with drugs having gradient concentrations. The tumor cells were cultivated for 72 h at 37° C., and assayed using SRB method. The concentration that 50% of the growth of the tumor cells growth was inhibited, i.e., IC50, was calculated from dosage-activity curves.
A general note: The SRB assay estimates cell density from bound dye.

For a further experiment, the system named is A549 cells. Put plainly: Anti-tumor (cytotoxic) activity assay, SRB method, A549. The format is cell-based. To be noted: Homo sapiens, 72 h at 37° C., read-out: growth inhibition activity on A549 cells, IC50. The procedure:
as §1

SMILES strings stand for the structures.

By IC50 is commonly meant the midpoint of a concentration-inhibition curve.

As for `CC[C@@]1(O)C(=O)OCc2c1cc1n(c2=O)Cc2cc3ccccc3nc2-1` [CPT, Camptothecin], the IC50 in the experiment on HCT-116 cells turned out to be 22.9 ± 12 nM; in the experiment with A549 cells, 33.8 ± 13.9 nM.
For `CC[C@@]1(O)C(=O)OCc2c1cc1n(c2=O)Cc2cc3cc(O)ccc3nc2-1` [Compound 10-HCPT, 10-hydroxylcamptothecin, reference compound], the IC50 with HCT-116 cells is 31.2 ± 8.2 nM; in the experiment with A549 cells, 33.6 ± 17.8 nM.
As to `CCc1c2c(nc3ccc(O)cc13)-c1cc3c(c(=O)n1C2)COC(=O)[C@]3(O)CC` [SN-38, reference compound], the IC50 in the experiment on HCT-116 cells was 40.8 ± 5.8 nM; in the experiment on A549 cells, 30.4 ± 11.5 nM.
In the same order, the values of `CC[C@]1(O)c2cc3n(c(=O)c2COC(=O)[C@@H]1OC(C)=O)Cc1cc2ccccc2nc1-3` [Ysb-1, (20S,20aR)-20a-acetoxyhomocamptothecin] are 14.2 ± 6.1 nM and 49.2 ± 34.6 nM.
With `CC[C@]1(O)c2cc3n(c(=O)c2COC(=O)[C@@H]1O)Cc1cc2ccccc2nc1-3` [Ysb-2, (20S,20aR)-20a-hydroxylhomocamptothecin], the IC50 with HCT-116 cells was found to be 49.3 ± 15 nM; in the experiment on A549 cells it was 16.8 ± 4.2 nM.
For `CC[C@]1(O)c2cc3n(c(=O)c2COC(=O)[C@@H]1OC(C)=O)Cc1cc2cc(OC)ccc2nc1-3` [Ysb-3, (20S,20aR)-10-methoxy-20a-acetoxyhomocamptothecin], in that order: 4.4 ± 1 nM and 4.7 ± 1.1 nM.
As for `CC[C@]1(O)c2cc3n(c(=O)c2COC(=O)[C@@H]1O)Cc1cc2cc(OC)ccc2nc1-3` [Ysb-4, (20S,20aR)-10-methoxy-20a-hydroxylhomocamptothecin], the figures for the IC50 in the experiment on HCT-116 cells and in the experiment on A549 cells were 10.6 ± 6.2 nM and 4.8 ± 3.6 nM, respectively.
For `CC[C@]1(O)c2cc3n(c(=O)c2COC(=O)[C@@H]1OC(C)=O)Cc1cc2cc4c(cc2nc1-3)OCO4` [Ysb-5], in that order: 2.1 ± 0.3 nM and 1.2 ± 0.7 nM.
As to `CC[C@]1(O)c2cc3n(c(=O)c2COC(=O)[C@@H]1O)Cc1cc2cc4c(cc2nc1-3)OCO4` [Ysb-6, (20S,20aR)-9,10-(1,3-dioxolane)-20a-hydroxylhomocamptothecin], the figures for the IC50 in the experiment with HCT-116 cells and in the experiment with A549 cells were 3.1 ± 0.7 nM and 3.1 ± 1.6 nM, respectively.
In the same order, the values of `CC[C@]1(O)c2cc3n(c(=O)c2COC(=O)[C@@H]1OC(C)=O)Cc1cc2cc4c(cc2nc1-3)OCCO4` [Ysb-7] are 4.9 ± 4.1 nM and 4.6 ± 2.9 nM.
`CC[C@]1(O)c2cc3n(c(=O)c2COC(=O)[C@@H]1O)Cc1cc2cc4c(cc2nc1-3)OCCO4` [Ysb-8]: the IC50 in the experiment on HCT-116 cells is 3.4 ± 1.2 nM; with A549 cells, 2.9 ± 1.3 nM.
In the same order, the values of `CCc1c2c(nc3ccc(O)cc13)-c1cc3c(c(=O)n1C2)COC(=O)[C@H](OC(C)=O)[C@]3(O)CC` [Ysb-9, (20S,20aR)-10-hydroxyl-7-ethyl-20a-acetoxy homocamptothecin] are 133 ± 18.7 nM and 226 ± 15.8 nM.
`CCc1c2c(nc3ccc(O)cc13)-c1cc3c(c(=O)n1C2)COC(=O)[C@H](O)[C@]3(O)CC` [Ysb-10, (20S,20aR)-10-hydroxyl-7-ethyl-20a-hydroxyl homocamptothecin]: the IC50 was determined as 366 ± 213 nM in the experiment on HCT-116 cells and 30.3 ± 18.4 nM in the experiment on A549 cells.

Source of the values: patent publication US9115150B2, “Camptothecin compound containing stable 7-membered lactone ring, preparation method and use” (EAST CHINA NORMAL UNIVERSITY, priority 2012, dated 2015).
